The values that follow come from publication PMC2935147 (Journal of medicinal chemistry, 2010).

Data set [1] addresses T1, human P2Y6 receptor (Homo sapiens, UniProt Q15077). Format: cell-based.
In data set [2] the target is T2, human P2Y2 receptor (Homo sapiens, UniProt P41231). Kind of data set: PLC activation. Format: cell-based.
Data set [3] deals with T1, human P2Y6 receptor. Kind of data set: PLC activation. The data set is classed as cell-based. The following applies: for activity at the P2Y6 receptor: 1321N1 cells; for Pharmacological properties at hP2Y6 receptor: summary in words, Table 4.
Data set [4] deals with T1, human P2Y6 receptor. The following applies: cited from earlier work.
In data set [5] the target is T2, human P2Y2 receptor. The following applies: read-out: EC50 hP2Y2; ref Kim et al.[26]; cited from earlier work.
The next data set addresses human P2Y4 receptor (Homo sapiens, UniProt P51582). The following applies: read-out: EC50 hP2Y4; ref Kim et al.[26]; cited from earlier work.
A short description of data set [6]: Stability in acidic aqueous solution. The data set is classed as physicochemical. The following applies: HCl buffer (pH 1.2).
In the next data set the target is human P2Y14 receptor. Particulars: read-out: EC50 at the P2Y14 receptor; cited from earlier work.
Setting [7] is: ratio of EC50 values, PLC activation.

Structures can show the parent of a compound that is named as a salt. Where two headings read alike, the source gives them in different places. Bounds are passed on as bounds.

T1 sequence (Q15077 whole entry): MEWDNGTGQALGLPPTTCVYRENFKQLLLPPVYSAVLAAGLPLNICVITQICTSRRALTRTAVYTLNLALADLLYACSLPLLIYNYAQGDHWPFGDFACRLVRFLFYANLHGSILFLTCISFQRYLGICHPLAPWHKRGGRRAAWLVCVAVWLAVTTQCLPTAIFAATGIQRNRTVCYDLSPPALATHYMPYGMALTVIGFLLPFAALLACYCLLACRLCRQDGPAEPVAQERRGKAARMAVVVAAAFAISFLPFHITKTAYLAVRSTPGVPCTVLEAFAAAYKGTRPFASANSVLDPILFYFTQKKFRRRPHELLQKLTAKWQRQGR
T2 sequence (P41231 whole entry): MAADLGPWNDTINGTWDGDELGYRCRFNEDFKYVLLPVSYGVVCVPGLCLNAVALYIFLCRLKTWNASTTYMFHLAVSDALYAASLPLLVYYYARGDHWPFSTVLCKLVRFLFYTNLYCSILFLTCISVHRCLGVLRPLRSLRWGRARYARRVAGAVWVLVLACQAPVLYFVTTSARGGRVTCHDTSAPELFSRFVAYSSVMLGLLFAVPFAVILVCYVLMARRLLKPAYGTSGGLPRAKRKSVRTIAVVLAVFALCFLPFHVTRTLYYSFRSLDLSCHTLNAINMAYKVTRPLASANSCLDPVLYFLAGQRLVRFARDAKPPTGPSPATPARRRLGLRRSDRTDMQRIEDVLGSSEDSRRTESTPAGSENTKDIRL
Chain of human P2Y4 receptor (P51582 whole entry): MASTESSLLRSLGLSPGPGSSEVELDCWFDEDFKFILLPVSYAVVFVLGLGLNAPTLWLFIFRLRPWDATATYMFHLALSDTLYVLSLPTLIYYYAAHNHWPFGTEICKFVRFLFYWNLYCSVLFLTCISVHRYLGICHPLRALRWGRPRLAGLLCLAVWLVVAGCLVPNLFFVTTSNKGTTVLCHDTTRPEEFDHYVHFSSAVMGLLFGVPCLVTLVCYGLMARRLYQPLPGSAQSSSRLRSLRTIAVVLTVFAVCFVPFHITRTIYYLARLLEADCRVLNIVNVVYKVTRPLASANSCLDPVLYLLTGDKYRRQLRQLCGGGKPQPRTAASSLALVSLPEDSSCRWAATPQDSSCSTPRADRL

In the case of `O=c1[nH]c(=O)n([C@@H]2O[C@H](COP(=O)(O)OP(=O)(O)O)[C@@H](O)[C@H]2O)cc1I` [Compound 3, 5-iodo-UDP], the midpoint of the response at human P2Y6 receptor [1], the EC50, lay at 50 nM.

Turning to `CO/N=c1/ccn([C@@H]2O[C@H](COP(=O)(O)CP(=O)(O)O)[C@@H](O)[C@H]2O)c(=O)[nH]1` [Compound 16, N^4-Methoxycytidine-5′-α,β-methylenediphosphate triethylammonium salt], the half-maximal effective concentration (EC50) (as a rule, the concentration giving half of the maximal effect) is above 10000 nM at human P2Y2 receptor [2] and 678 ± 18 nM at human P2Y6 receptor [3]. At human P2Y6 receptor [3], `CCO/N=c1/ccn([C@@H]2O[C@H](COP(=O)(O)OP(=O)(O)O)[C@@H](O)[C@H]2O)c(=O)[nH]1` [Compound 13, N^4-Ethoxycytidine-5′-diphosphate ammonium salt] gave a concentration for a half-maximal effect (EC50) of 104 ± 23 nM. In the case of `O=c1ccn([C@H]2[C@H](O)[C@H](O)[C@@]3(COP(=O)(O)OP(=O)(O)O)C[C@H]23)c(=O)[nH]1` [Compound 8, (N)-methanocarba UDP], the “activity at the P2Y6 receptor” value on human P2Y6 receptor [4] (previously found) is “inactive”. In the case of `CCN(CC)CC.O=c1ccn([C@@]23C[C@H]2[C@@H]2COP(=O)(O)OP(=O)(O)O[C@H]2[C@H]3O)c(=O)[nH]1` [Compound 9, (S)-Methanocarba-uridine-3′, 5′-cyclic diphosphate triethylammonium salt], the “activity at the P2Y6 receptor” value on human P2Y6 receptor [3] (PLC activation) was “inactive”. Take `O=c1ccn([C@@H]2O[C@H](COP(=O)(O)OP(=O)(O)O)[C@@H](O)[C@H]2O)c(=O)[nH]1` [Compound 1, uridine-5′-diphosphate]: on human P2Y6 receptor [1], a half-maximal effect (EC50) was put at 200 nM. Consider `CCN(CC)CC.CO/N=c1/ccn([C@@H]2O[C@H](COP(=O)(O)OP(=O)(O)OP(=O)(O)O[C@H]3O[C@H](CO)[C@@H](O)[C@H](O)[C@H]3O)[C@@H](O)[C@H]2O)c(=O)[nH]1` [Compound 32, N^4-Methoxycytidine-5′-glucose-1′-triphosphate triethylammonium salt], for which, at human P2Y6 receptor [3] (setting [7]), the “selectivity P2Y6 versus P2Y2 receptor” value is given as above 100 fold and the “selectivity P2Y6 versus P2Y4 receptor” value is listed as above 100 fold. As for `CCN(CC)CC.CO/N=c1/ccn([C@@H]2O[C@H](COP(=O)(O)OP(=O)(O)O)[C@@H](O)[C@H]2O)c(=O)[nH]1` [Compound 12, N^4-Methoxycytidine-5′-diphosphate ammonium salt], the “selectivity P2Y6 versus P2Y14 receptor” value at human P2Y6 receptor [3] (PLC via P2Y6 versus inhibition of cyclic AMP accumulation in HEK-293 cells expressing hP2Y14) is on record as 47 fold. For the same molecule, the “gain of potency at the P2Y6 receptor over UDP 1” value at human P2Y6 receptor [3] (ratio of EC50 values) came to 4 fold. In addition, at human P2Y6 receptor [3] (setting [7]), the “selectivity P2Y6 versus P2Y2 receptor” value is on record as 51 fold. Further, the “Pharmacological properties at hP2Y6 receptor” value (“Pharmacological properties” for short) at human P2Y6 receptor [3] is on record as “selective, potent agonist”. As to `CCN(CC)CC.O=C(Cn1c(=O)ccn([C@@H]2O[C@H](COP(=O)(O)OP(=O)(O)OP(=O)(O)O[C@H]3O[C@H](CO)[C@@H](O)[C@H](O)[C@H]3O)[C@@H](O)[C@H]2O)c1=O)c1ccccc1` [Compound 30, 3-Phenacyluridine-5′-glucose-1′-triphosphate triethylammonium salt], the “activity at the P2Y6 receptor” value on human P2Y6 receptor [3] (PLC activation) is listed as “only weakly active”.

`CCN(CC)CC.O=c1ccn([C@@H]2O[C@H](COP(=O)(O)OP(=O)(O)OP(=O)(O)Oc3ccccc3)[C@@H](O)[C@H]2O)c(=O)[nH]1` [Compound 26, P^1-Uridine-5′-P^3-phenyl-triphosphate triethylammonium salt]: at human P2Y6 receptor [3], the “Pharmacological properties” value is “weak agonist, selective”.

Consider `N.O=c1ccn([C@@]23C[C@H]2[C@H](COP(=O)(O)OP(=O)(O)O)[C@@H](O)[C@H]3O)c(=O)[nH]1` [Compound 7, (S)-Methanocarba-uridine-5′-diphosphate triethylammonium salt], for which, at human P2Y6 receptor [3] (ratio of EC50 values), the “gain of potency at the P2Y6 receptor over (S)-methanocarba-2′-deoxy-UDP 6” value amounted to 5 fold and the “gain of potency at the P2Y6 receptor over UDP 1” value stood at 7 fold.

As to `CCN(CC)CC.CO/N=c1/ccn([C@@H]2O[C@H](COP(=O)(O)OP(=O)(O)OP(=O)(O)Oc3ccccc3)[C@@H](O)[C@H]2O)c(=O)[nH]1` [Compound 33, N^4-Methoxycytidine-5′-phenyl-triphosphate triethylammonium salt], the “activity at the P2Y6 receptor” value on human P2Y6 receptor [3] (PLC activation) is reported as “weakly activated”. On human P2Y6 receptor [3], `CC(C)(C)O/N=c1/ccn([C@@H]2O[C@H](COP(=O)(O)OP(=O)(O)O)[C@@H](O)[C@H]2O)c(=O)[nH]1` [Compound 14, N^4-t-Butyloxycytidine-5′-diphosphate ammonium salt] gave a 50% effective concentration (EC50) of 2550 ± 700 nM.

With `CCN(CC)CC.O=c1ccn([C@@H]2O[C@H](COP(=O)(O)OP(=O)(O)OP(=O)(O)OC3CCCCC3)[C@@H](O)[C@H]2O)c(=O)[nH]1` [Compound 25, P^1-Uridine-5′-P^3-cyclohexyl-triphosphate triethylammonium salt], the “Pharmacological properties” value at human P2Y6 receptor [3] is “weak agonist, nonselective vs. P2Y2 receptor”. Turning to `CCN(CC)CC.O=c1[nH]/c(=N\OCc2ccccc2)ccn1[C@@H]1O[C@H](COP(=O)(O)OP(=O)(O)O)[C@@H](O)[C@H]1O` [Compound 15, N^4-Benzyloxycytidine-5′-diphosphate ammonium salt], the “Pharmacological properties” value at human P2Y6 receptor [3] is “selective, potent agonist”. As for `O=c1ccn(C2C(O)C(O)C3(COP(=O)(O)OP(=O)(O)OP(=O)(O)O)CC23)c(=O)[nH]1` (stereo not drawn) [Compound 19, (N)-methanocarba UTP], the EC50 on human P2Y2 receptor [5] was 16 ± 7 nM; on human P2Y4 receptor, 85 ± 5 nM; at human P2Y6 receptor [4] (read-out: EC50 hP2Y6, NE = no effect at 10 μM, ref Kim et al.[26]) it was above 10000 nM. With `CCN(CC)CC.O=c1ccn([C@@H]2O[C@H](COP(=O)(O)OP(=O)(O)OP(=O)(O)O[C@H]3O[C@H](CO)[C@@H](O)[C@H](O)[C@H]3O)[C@@H](O)[C@H]2O)c(=O)[nH]1` [Compound 27, P^1-Uridine-5′-P^3-[1]glucose-1′-triphosphate triethylammonium salt], the “activity at the P2Y6 receptor” value at human P2Y6 receptor [3] (PLC activation) was “only weakly activated”; on human P2Y6 receptor [3] (PLC activation, listed as UTP-glucose) it was “inactive”. Also, the “Pharmacological properties” value on human P2Y6 receptor [3] is “~inactive”.

Regarding `O=c1ccn([C@@H]2O[C@H](COP(=O)(O)OP(=O)(O)OP(=O)(O)O)[C@@H](O)[C@H]2O)c(=O)[nH]1` [Compound 17, uridine-5′-triphosphate, reference compound], the “Pharmacological properties” value on human P2Y6 receptor [3] was “~inactive”.

`O=c1ccn([C@@H]2O[C@H](COP(=O)(O)OP(=O)(O)OP(=O)(O)OC[C@H]3O[C@@H](n4ccc(=O)[nH]c4=O)[C@H](O)[C@@H]3O)[C@@H](O)[C@H]2O)c(=O)[nH]1` [Compound 21, Up3U]: the “Pharmacological properties” value on human P2Y6 receptor [3] is given as “moderately potent agonist, only 4-5 fold selective”. Besides, it took 370 nM to reach a half-maximal effect on human P2Y6 receptor [1] (EC50). The half-life (usually how long it takes for the measured level to halve) at 0.2 mg/mL in data set [6] is 218 h. Regarding `CONc1ccn([C@@H]2O[C@H](COP(=O)(O)OP(=O)(O)OP(=O)(O)OC[C@H]3O[C@@H](n4ccc(NOC)nc4=O)[C@H](O)[C@@H]3O)[C@@H](O)[C@H]2O)c(=O)n1` [Compound 24, N^4-OMe-Cp3(N^4-OMe)C], the midpoint of the response at human P2Y6 receptor [1], the EC50, lay at 630 nM. As for `CCN(CC)CC.CO/N=c1/ccn([C@@H]2O[C@H](COP(=O)(O)OP(=O)(O)OP(=O)(O)OC[C@H]3O[C@@H](n4ccc(=O)[nH]c4=O)[C@H](O)[C@@H]3O)[C@@H](O)[C@H]2O)c(=O)[nH]1` [Compound 23, N^4-methoxy-Cp3U], the “enhancement of P2Y6 receptor potency relative to Up3U 21” value at human P2Y6 receptor [3] (ratio of EC50 values) was determined as 22 fold. For the same molecule, the “Pharmacological properties” value at human P2Y6 receptor [3] is listed as “selective, potent agonist”. Besides, a half-maximal effect on human P2Y6 receptor [1] (EC50) was put at 83 nM. `CCN(CC)CC.O=c1ccn([C@@H]2O[C@H](COP(=O)(O)CP(=O)(O)OP(=O)(O)OC[C@H]3O[C@@H](n4ccc(=O)[nH]c4=O)[C@H](O)[C@@H]3O)[C@@H](O)[C@H]2O)c(=O)[nH]1` [Compound 22, P^1,P^3-Di(uridine-5′-)α,β-methylenetriphosphate triethylammonium salt]: the “reduction of P2Y6 receptor potency relative to Up3U 21” value on human P2Y6 receptor [3] (ratio of EC50 values) came to 5 fold. Moreover, on human P2Y6 receptor [3], the “Pharmacological properties” value was “weak agonist, selective”. As for `CCN(CC)CC.O=c1ccn([C@@H]2O[C@H](COP(=O)(O)CP(=O)(O)OP(=O)(O)O[C@H]3O[C@H](CO)[C@@H](O)[C@H](O)[C@H]3O)[C@@H](O)[C@H]2O)c(=O)[nH]1` [Compound 31, Uridine-5′-glucose-1′-α,β-methylenetriphosphate triethylammonium salt], at human P2Y6 receptor [3] (PLC activation), the “activity at the P2Y6 receptor” value is “only weakly active”. For the same molecule, the “Pharmacological properties” value at human P2Y6 receptor [3] is “~inactive”.

For `Nc1ccn([C@@H]2O[C@H](COP(=O)(O)OP(=O)(O)O)[C@@H](O)[C@H]2O)c(=O)n1` [CDP], the “activity at the human P2Y6 receptor” value on human P2Y6 receptor [4] was “nearly inactive”. Also, the concentration for a half-maximal effect (EC50) at human P2Y14 receptor was above 10000 nM. Regarding `CCN(CC)CC.CO/N=c1\ccn([C@@H]2O[C@H](COP(=O)(O)OP(=O)(O)OP(=O)(O)O)[C@@H](O)[C@H]2O)c(=O)[nH]1` [Compound 20, N^4-Methoxycytidine-5′-triphosphate ammonium salt], the “gain of potency at the P2Y6 receptor over UTP 17” value at human P2Y6 receptor [3] (ratio of EC50 values) is listed as above 100 fold.
